Laboratory results published in ChEMBL document CHEMBL5634125, “Investigation of novel 5'-amino adenosine derivatives with potential anti-Zika virus activity” (Eur J Med Chem, 2023).
Calls of active or inactive are those of the source. No cut-off for these calls is given here.

How the values were obtained:
[1] = Half-life in ICR mouse at 25 mg/kg, po administered as single dose and measured upto 24 hrs by LC-MS/MS analysis; assay type: ADME, organism-based; conditions: in vivo
[2] = test system: Zika virus; assay: Antiviral activity against Zika virus SMGC-1 infected in ICR mouse assessed as survival at 1 mg/kg, ip pre-infected with virus for 4 hrs followed by once daily compound administration for 9 days and measured after 24 days relative to control; assay type: functional; conditions: SMGC-1, 576 h, time 24 day
[3] = Acute toxicity in A129 mouse assessed as animal death at 50 mg/kg, po measured after 2 weeks; assay type: organism-based; conditions: in vivo, 336 h
[4] = test system: Zika virus; assay: Inhibition of Zika virus NS2B-NS3 protease using Bz-Nle-Lys-Lys-Arg-AMC as substrate at 1.25 to 200 uM preincubated for 30 mins followed by substrate addition and measured after 20 mins by Real-time fluorescence based analysis; conditions: dose 1.25-200 µM, time 50.0 min
[5] = test system: Zika virus; assay: Inhibition of Zika virus NS5-RdRp at 50 uM preincubated for 20 mins followed by ATP addition and measured after 60 mins by fluorescence based assay relative to control; conditions: time 80.0 min
[6] = test system: Dengue virus; assay: Antiviral activity against Dengue virus assessed as inhibition of viral RNA production at stage IV; assay type: functional, organism-based
[7] = Tmax in ICR mouse at 25 mg/kg, po administered as single dose and measured upto 24 hrs by LC-MS/MS analysis; assay type: ADME, organism-based; conditions: in vivo
[8] = test system: Dengue virus; assay: Antiviral activity against Dengue virus assessed as inhibition of viral RNA production at stage III; assay type: functional, organism-based
[9] = test system: Zika virus; assay: Antiviral activity against Zika virus infected in golden hamster BHK-21 cells assessed as inhibition of viral replication incubated for 72 hrs by Dual-luciferase reporter assay system; assay type: functional, organism-based; conditions: BHK-21, 72 h
[10] = test system: Zika virus; assay: Antiviral activity against Zika virus infected in Ifnar-/- A129 mouse assessed as reduction in viral RNA in serum at 10 mg/kg, ip administered twice daily for 4 days by qRT-PCR analysis; assay type: functional, organism-based; conditions: time 4.0 day
[11] = Acute toxicity in po dosed ICR mouse assessed as lethal dose measured after 2 weeks; assay type: organism-based; conditions: in vivo
[12] = test system: Zika virus; assay: Antiviral activity against Zika virus infected in golden hamster BHK cells assessed as inhibition of virus induced cytopathic effect incubated for 6 to 8 days by CellTiter-Glo luminescent cell viability assay; assay type: functional, organism-based
[13] = test system: Zika virus; assay: Antiviral activity against Zika virus infected in golden hamster BHK cells assessed as inhibition of viral replication incubated for 72 hrs by qRT-PCR analysis; assay type: functional, organism-based; conditions: dose 2.5-20 µM
[14] = MRT in ICR mouse at 25 mg/kg, po administered as single dose and measured upto 24 hrs by LC-MS/MS analysis; assay type: ADME, organism-based; conditions: in vivo
[15] = test system: Zika virus; assay: Antiviral activity against Zika virus infected in golden hamster BHK cells assessed as inhibition of viral protein production incubated for 72 hrs by Western blot analysis; assay type: functional, organism-based; conditions: dose 2.5-20 µM
[16] = test system: Zika virus; assay: Antiviral activity against Zika virus infected in U87 cells assessed as suppression of CXCL11 expression at 10 uM by KEGG enrichment analysis; assay type: functional, organism-based
[17] = test system: Zika virus; assay: Inhibition of Zika virus NS5 MTase activity at 50 uM by chemiluminescence-based enzymatic assay system relative to control
[18] = test system: Zika virus; assay: Antiviral activity against Zika virus infected in infected in golden hamster BHK cells assessed as inhibition of viral RNA production at stage III incubated for 24 hrs by qRT-PCR analysis; assay type: functional, organism-based
[19] = Cmax in ICR mouse at 25 mg/kg, po administered as single dose and measured upto 24 hrs by LC-MS/MS analysis; assay type: ADME, organism-based; conditions: in vivo
[20] = AUC (0 to t) in ICR mouse at 25 mg/kg, po administered as single dose and measured upto 24 hrs by LC-MS/MS analysis; assay type: ADME, organism-based; conditions: in vivo
[21] = test system: Zika virus; assay: Antiviral activity against Zika virus SMGC-1 infected in ICR mouse assessed as survival at 10 mg/kg, ip pre-infected with virus for 4 hrs followed by once daily compound administration for 9 days and measured after 24 days relative to control; assay type: functional; conditions: SMGC-1, 576 h, time 24 day
[22] = test system: Zika virus; assay: Inhibition of Zika virus NS5-RdRp at 12.5 uM preincubated for 20 mins followed by ATP addition and measured after 60 mins by fluorescence based assay relative to control; conditions: time 80.0 min
[23] = test system: Zika virus; assay: Inhibition of Zika virus NS5-RdRp preincubated for 20 mins followed by ATP addition and measured after 60 mins by fluorescence based assay; conditions: dose 3.13-50 µM, time 80.0 min
[24] = test system: U-87MG ATCC; assay: Effect on CXCL2 expression in human U87 cells infected with Zika virus at 10 uM by KEGG enrichment analysis; assay type: functional, cell-based
[25] = test system: Zika virus; assay: Antiviral activity against Zika virus infected in golden hamster BHK cells assessed as reduction in infectious viral propagation incubated for 72 hrs by plaque reduction assay; assay type: functional, organism-based; conditions: dose 2.5-20 µM
[26] = Acute toxicity in A129 mouse assessed as animal death at 100 mg/kg, po measured after 2 weeks; assay type: organism-based; conditions: in vivo, 336 h
[27] = Acute toxicity in A129 mouse assessed as animal death at 200 mg/kg, po measured after 2 weeks; assay type: organism-based; conditions: in vivo, 336 h
[28] = test system: Zika virus; assay: Antiviral activity against Zika virus infected in golden hamster BHK cells assessed as inhibition of viral RNA production at stage IV pre-infected with virus for 2 hrs followed by compound addition and measured 24 hrs post infection by qRT-PCR analysis; assay type: functional, organism-based; conditions: time 22.0 hrs
[29] = molecular target: NS5 (Zika virus) (UniProt A0A143MHK7); assay: Binding affinity to Zika virus RdRp by SPR analysis; conditions: dose 1.56-25 µM
[30] = test system: U-87MG ATCC; assay: Effect on CXCL8 expression in human U87 cells infected with Zika virus at 10 uM by KEGG enrichment analysis; assay type: functional, cell-based
[31] = Inhibition of Zika virus NS5 transfected in HEK293T cells co-transfected with GLuc reporter plasmid incubated for 24 hrs by GLuc reporter assay; assay type: cell-based; conditions: HEK-293T
[32] = test system: U-87MG ATCC; assay: Effect on CXCL3 expression in human U87 cells infected with Zika virus at 10 uM by KEGG enrichment analysis; assay type: functional, cell-based
[33] = test system: Zika virus; assay: Antiviral activity against Zika virus SMGC-1 infected in ICR mouse assessed as increase in body weight at 10 mg/kg, ip pre-infected with virus for 4 hrs followed by once daily compound administration for 9 days and measured at 14 to 24 days; assay type: functional, organism-based; conditions: time 14-24 day

Compound: O[C@@H]1[C@H](O)[C@@H](CNCc2ccc(C(F)(F)F)cc2)O[C@H]1n1cnc2c(NCc3cccc(Cl)c3)ncnc21
- half-life [1]: 148 min
- survival at 1 mg/kg [2]: 30%
- Activity [3]: Non-Toxic
- inhibition [4]: inactive
- inhibition [5]: 62.4%
- Activity [6]: Active
- Tmax [7]: 25.2 min
- Activity [8]: Active
- IC50 [9]: 5.27 µM
- Activity [10]: Active
- LD50 at 336 h [11]: > 200 mg/kg
- IC50 [12]: 2150 nM
- Activity [13]: Dose-Dependent Effect
- MRT [14]: 3.82 h
- Activity [15]: Dose-Dependent Effect
- Activity [16]: Active
- inhibition [17]: 20.5%
- Activity [18]: Active
- Cmax [19]: 699 ng/mL
- AUC(0-t) at 24 h [20]: 2220 ng·h/mL
- survival at 10 mg/kg [21]: 70%
- inhibition [22]: 17.5%
- inhibition [23]: Dose-Dependent Effect
- Activity [24]: inactive
- Activity [25]: Dose-Dependent Effect
- Activity [26]: Non-Toxic
- Activity [27]: Non-Toxic
- Activity [28]: Active
- Activity [29]: Dose-Dependent Effect
- Activity [30]: inactive
- IC50 [31]: 8.78 µM
- Activity [32]: inactive
- Activity [33]: Active
